This note sets out measurements from patent US20090239840A1, “AMINO SUBSTITUTED DIARYL[a,d]CYCLOHEPTENE ANALOGS AS [sequence] AGONISTS AND METHODS OF TREATMENT OF NEUROPSYCHIATRIC DISORDERS” (ACADIA PHARMACEUTICALS, INC., priority 2003, published 2009).

For one series, the target named is T1, CYP 1A2 (Homo sapiens, UniProt P05177).
T1 sequence (P05177 1-516): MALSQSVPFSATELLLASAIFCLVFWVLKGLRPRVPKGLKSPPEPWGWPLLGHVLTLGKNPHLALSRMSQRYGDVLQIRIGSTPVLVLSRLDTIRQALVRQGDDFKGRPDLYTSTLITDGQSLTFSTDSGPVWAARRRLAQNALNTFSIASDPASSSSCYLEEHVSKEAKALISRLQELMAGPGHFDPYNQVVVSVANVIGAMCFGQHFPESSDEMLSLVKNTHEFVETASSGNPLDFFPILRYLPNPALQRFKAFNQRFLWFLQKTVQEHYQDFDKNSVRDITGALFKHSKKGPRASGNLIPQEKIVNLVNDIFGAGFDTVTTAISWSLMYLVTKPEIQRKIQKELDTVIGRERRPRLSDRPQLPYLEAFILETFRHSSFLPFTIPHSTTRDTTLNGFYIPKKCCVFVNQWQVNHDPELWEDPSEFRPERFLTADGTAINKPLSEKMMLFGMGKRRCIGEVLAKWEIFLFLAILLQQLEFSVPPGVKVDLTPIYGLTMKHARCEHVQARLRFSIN
Description: CYP inhibition, 1A2. It is filed as in vitro ADME.

The next series relates to novel object recognition. As to the kind of experiment: Novel object recognition (NOR) assay. The format is in vivo. The following applies: mice; for NOR - 60 minutes post training / NOR - 120 minutes post training: dose approx. ID75 in MK-801 hyperactivity assay. The protocol: Salts of the compounds were administered to mice at one hour post-training (a time-point at which animals normally behaviorally discriminate between novel and familiar objects) and two hours post-training (a time-point at which these animals normally no longer discriminate between objects). Doses were selected to correspond to the approximate ID75 value in the MK-801 hyperactivity assay.

The target in the next series is D2 receptor (Homo sapiens, UniProt P14416). Description: Receptor profile, D2 agonist activity. Particulars: for D2 intrinsic activity, in words: devoid of agonist activity.
Chain of D2 receptor (P14416 whole entry): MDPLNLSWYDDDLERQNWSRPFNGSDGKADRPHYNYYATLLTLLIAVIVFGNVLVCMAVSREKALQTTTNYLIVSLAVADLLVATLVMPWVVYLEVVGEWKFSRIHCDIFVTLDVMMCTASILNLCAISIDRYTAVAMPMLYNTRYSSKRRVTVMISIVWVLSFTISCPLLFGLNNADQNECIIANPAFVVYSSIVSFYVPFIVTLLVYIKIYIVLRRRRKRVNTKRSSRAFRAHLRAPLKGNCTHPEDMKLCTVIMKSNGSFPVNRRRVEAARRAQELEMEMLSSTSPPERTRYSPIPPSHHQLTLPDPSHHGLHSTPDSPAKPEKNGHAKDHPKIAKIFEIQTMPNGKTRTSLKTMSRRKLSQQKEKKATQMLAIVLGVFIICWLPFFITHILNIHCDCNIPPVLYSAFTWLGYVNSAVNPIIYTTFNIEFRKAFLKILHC
In series [1] the test system is hyperactivity induced by MK-801. Description: MK-801 induced hyperactivity mouse model. It is filed as in vivo. Particulars: mice, salts of the compounds. Here is the method:
(§1) Five of the compounds listed in Table 2 were tested in an in vivo assay predictive of antipsychotic activity. Salts of these compounds where administered to mice having hyperactivity induced by amphetamine or MK-801 administration. The compounds were administered both subcutaneously (sc) and orally (po).

In another series the target is CYP 2C19 (Homo sapiens, UniProt P33261). As to the kind of experiment: CYP inhibition, 2C19. The format is in vitro ADME.
Chain of CYP 2C19 (P33261 whole entry): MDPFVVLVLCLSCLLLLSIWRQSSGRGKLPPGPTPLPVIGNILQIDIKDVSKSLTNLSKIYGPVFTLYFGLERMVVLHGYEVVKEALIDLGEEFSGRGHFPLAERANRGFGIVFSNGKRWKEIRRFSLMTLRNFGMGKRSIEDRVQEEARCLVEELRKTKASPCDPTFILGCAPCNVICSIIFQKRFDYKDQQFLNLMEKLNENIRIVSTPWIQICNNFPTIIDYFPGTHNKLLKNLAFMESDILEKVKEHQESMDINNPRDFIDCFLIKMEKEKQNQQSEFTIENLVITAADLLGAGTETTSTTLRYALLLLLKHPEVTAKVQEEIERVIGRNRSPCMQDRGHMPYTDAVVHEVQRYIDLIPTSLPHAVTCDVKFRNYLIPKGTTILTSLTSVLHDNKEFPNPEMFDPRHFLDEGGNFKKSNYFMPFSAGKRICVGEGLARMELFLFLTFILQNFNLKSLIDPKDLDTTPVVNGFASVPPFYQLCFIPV
The target of a further series is CYP 2D6 (Homo sapiens, UniProt P10635). As to the kind of experiment: CYP inhibition, 2D6. It is filed as in vitro ADME.
Chain of CYP 2D6 (P10635 whole entry): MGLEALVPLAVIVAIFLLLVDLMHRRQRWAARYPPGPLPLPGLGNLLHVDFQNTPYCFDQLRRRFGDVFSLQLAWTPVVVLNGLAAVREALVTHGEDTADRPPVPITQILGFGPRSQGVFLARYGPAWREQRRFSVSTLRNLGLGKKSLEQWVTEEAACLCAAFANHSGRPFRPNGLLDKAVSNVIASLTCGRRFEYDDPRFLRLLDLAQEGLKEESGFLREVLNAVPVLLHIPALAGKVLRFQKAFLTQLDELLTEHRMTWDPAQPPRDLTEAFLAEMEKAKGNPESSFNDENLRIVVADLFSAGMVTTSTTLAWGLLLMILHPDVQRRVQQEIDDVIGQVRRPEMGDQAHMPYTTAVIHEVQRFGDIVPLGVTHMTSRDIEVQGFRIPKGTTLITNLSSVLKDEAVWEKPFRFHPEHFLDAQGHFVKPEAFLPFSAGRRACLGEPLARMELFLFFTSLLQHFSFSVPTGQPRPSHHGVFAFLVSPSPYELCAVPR
A further series deals with T2, muscarinic M2 receptor (Homo sapiens, UniProt P08172).
T2 construct: expressed in transfected cells
T2 sequence (P08172 1-466): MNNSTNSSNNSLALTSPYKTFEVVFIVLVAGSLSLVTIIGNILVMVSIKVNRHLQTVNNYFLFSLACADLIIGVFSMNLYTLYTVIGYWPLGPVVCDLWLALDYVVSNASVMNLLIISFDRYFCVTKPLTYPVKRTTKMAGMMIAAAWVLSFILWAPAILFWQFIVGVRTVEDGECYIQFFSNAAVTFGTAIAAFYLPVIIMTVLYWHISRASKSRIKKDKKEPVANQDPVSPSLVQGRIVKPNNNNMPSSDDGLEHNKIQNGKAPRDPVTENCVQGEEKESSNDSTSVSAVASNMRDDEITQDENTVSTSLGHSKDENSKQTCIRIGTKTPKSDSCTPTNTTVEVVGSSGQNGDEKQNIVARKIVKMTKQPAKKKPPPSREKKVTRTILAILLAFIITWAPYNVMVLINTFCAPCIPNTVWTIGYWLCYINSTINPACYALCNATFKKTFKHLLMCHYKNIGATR
As to the kind of experiment: R-SAT functional screen, M2. The format is cell-based. Particulars: R-SAT; for Emax: read-out: M2 eff (efficacy); for EC50: read-out: M2 pEC50 (converted). The method, boiled down: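 Receptor Selection and Amplification Technology (R-SAT) functional cell assay at M1, M2, M3 receptors. Values reported as efficacy (eff) and potency as pEC50.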

Another series deals with 5-HT2A receptor (Homo sapiens, UniProt P28223). As to the kind of experiment: Receptor profile, 5-HT2A inverse agonism. It is filed as cell-based. The following applies: negative log of the inhibitory IC50 (inverse agonism); read-out: 5-HT2A pIEC50 (converted).
Chain of 5-HT2A receptor (P28223 whole entry): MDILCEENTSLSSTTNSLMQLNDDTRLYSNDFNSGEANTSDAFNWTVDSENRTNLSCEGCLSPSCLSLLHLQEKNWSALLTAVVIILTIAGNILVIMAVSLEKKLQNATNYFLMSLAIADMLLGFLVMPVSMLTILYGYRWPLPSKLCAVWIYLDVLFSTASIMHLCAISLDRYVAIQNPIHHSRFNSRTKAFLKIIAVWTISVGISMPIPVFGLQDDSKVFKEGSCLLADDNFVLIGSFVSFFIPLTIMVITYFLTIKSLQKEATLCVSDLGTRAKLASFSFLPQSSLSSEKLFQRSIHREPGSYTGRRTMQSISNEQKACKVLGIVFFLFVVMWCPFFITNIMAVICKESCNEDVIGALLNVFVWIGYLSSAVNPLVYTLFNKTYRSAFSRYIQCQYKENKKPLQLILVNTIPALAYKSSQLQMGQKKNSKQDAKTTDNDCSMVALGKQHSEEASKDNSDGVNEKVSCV
A further series can be described thus: Ames mutagenesis assay. It is filed as cell-based. For orientation: The Ames test uses bacterial strains that need an amino acid and regain growth without it when mutated back.
The target of the next series is T3, M1 receptor (Homo sapiens, UniProt P11229).
T3 sequence (P11229 1-460): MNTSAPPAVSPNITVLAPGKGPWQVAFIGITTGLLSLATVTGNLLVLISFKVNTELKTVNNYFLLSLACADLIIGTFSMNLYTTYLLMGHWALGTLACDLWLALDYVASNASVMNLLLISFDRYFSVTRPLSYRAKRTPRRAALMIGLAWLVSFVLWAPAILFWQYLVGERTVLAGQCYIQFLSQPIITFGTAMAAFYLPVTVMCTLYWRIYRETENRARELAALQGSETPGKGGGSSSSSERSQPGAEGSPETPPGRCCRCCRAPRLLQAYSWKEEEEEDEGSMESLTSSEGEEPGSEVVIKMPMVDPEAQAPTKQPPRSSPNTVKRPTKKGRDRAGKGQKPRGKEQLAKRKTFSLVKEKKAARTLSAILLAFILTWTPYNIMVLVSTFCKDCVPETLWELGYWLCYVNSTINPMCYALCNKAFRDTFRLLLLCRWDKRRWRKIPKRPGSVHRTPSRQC
As to the kind of experiment: Receptor profile, M1 agonist activity. Particulars: for Emax: read-out: M1 intrinsic activity %.

Another series addresses CYP 3A4 (Homo sapiens, UniProt P08684). As to the kind of experiment: biochemical. The protocol:
The compounds listed in Table 4 were profiled in a panel of in vitro assays for assessment of cardiovascular (hERG), drug-drug interaction (CYP inhibition), and mutagenic (Ames) liability. Microsomal stability was also determined by measuring both rat and human microsomal clearance.

Series [2] in a line: Human microsomal clearance. It is filed as in vitro ADME. The following applies: human microsomes.
Another series in a line: Rat microsomal clearance. The following applies: rat microsomes. It is filed as in vitro ADME.
Another series deals with hERG (Homo sapiens, UniProt Q12809). Description: hERG assay. On the technique in general: The hERG channel carries a current that helps repolarise heart muscle cells.
Chain of hERG (Q12809 whole entry): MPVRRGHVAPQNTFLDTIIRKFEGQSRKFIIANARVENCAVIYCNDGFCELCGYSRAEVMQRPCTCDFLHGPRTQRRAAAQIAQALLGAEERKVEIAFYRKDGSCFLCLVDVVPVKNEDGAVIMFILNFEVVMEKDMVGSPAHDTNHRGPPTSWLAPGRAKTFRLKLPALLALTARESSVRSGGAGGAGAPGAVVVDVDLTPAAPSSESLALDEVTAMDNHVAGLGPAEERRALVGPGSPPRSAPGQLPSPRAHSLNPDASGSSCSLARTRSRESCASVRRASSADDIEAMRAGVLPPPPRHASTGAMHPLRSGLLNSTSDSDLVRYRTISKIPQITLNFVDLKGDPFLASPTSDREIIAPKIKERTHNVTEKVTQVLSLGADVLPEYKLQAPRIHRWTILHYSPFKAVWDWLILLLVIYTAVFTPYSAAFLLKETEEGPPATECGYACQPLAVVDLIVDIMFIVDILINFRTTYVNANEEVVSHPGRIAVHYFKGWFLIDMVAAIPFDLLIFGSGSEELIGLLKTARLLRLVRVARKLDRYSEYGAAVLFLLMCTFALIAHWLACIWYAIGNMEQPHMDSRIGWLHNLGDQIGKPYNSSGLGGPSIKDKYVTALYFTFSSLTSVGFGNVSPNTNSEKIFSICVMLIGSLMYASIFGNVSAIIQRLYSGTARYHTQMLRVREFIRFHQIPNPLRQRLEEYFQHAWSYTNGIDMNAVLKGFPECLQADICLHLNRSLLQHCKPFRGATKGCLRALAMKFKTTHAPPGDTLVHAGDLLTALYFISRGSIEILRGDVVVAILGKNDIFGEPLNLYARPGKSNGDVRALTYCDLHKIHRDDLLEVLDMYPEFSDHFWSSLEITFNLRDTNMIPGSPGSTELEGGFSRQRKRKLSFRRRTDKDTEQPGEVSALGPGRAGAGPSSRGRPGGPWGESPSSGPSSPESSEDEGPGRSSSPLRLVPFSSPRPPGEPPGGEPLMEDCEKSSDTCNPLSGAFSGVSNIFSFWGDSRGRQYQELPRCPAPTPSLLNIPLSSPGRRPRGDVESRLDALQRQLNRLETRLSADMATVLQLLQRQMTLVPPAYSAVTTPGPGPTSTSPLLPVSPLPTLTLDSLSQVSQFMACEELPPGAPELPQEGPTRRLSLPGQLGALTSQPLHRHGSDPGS
In the next series the target is CYP 2C9 (Homo sapiens, UniProt P11712). As to the kind of experiment: CYP inhibition, 2C9. It is filed as in vitro ADME.
Chain of CYP 2C9 (P11712 whole entry): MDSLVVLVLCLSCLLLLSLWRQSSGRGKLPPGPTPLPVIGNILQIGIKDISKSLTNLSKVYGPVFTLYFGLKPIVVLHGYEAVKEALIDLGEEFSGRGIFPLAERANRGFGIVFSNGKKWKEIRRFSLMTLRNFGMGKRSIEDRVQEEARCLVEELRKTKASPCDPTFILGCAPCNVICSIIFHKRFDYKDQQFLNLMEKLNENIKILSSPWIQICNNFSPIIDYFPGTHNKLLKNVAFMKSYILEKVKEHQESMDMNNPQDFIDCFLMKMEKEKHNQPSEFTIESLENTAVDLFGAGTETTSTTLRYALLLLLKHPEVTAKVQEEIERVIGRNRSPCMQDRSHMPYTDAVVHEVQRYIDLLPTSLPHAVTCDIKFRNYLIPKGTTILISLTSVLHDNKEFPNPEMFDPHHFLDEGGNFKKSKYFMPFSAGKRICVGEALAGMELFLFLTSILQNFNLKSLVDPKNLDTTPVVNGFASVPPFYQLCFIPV
Series [3] relates to hyperactivity induced by amphetamine. As to the kind of experiment: Amphetamine induced hyperactivity mouse model. The format is in vivo. Particulars: mice, salts of the compounds. Here is the method: as §1
Where [4] appears, read: to 10 μM (cytotoxicity precluded evaluation of all concentrations).

The structures appear in SMILES notation. Where only a bound is given, the exact number is not on record here.

Chain of CYP 3A4 (P08684 whole entry): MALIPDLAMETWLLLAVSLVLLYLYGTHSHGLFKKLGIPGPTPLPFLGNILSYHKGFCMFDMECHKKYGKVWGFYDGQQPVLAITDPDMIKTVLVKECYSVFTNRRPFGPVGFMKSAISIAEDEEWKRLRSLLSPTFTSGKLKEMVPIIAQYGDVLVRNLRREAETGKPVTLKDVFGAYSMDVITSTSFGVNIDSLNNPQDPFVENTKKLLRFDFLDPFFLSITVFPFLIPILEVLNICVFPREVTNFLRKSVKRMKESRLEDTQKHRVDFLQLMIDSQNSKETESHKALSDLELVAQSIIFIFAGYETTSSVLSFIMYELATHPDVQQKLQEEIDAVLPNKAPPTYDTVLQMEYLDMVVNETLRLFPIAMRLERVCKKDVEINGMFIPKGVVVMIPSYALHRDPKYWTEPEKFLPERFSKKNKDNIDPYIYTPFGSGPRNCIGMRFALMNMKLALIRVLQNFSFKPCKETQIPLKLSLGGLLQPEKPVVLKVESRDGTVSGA
Description for D2 receptor: (§2) Intrinsic activity was normalized to carbachol (M1) or pergolide (D2). For those ligands devoid of agonist activity, the values shown are pKi determined using [3H]raclopride.
Description for M1 receptor: as §2

For the compound `Clc1ccc2c(c1)N=C(N1CCNCC1)c1ccccc1C2` [3-Chloro-6-piperazin-1-yl-11H-dibenzo[b,e]azepine], the IC50 at CYP 1A2 is > 10000 nM; on CYP 2C19, > 10000 nM; against CYP 2D6, > 10000 nM; on 5-HT2A receptor, 31.6 nM; against CYP 3A4 it was ~4000 nM; against hERG, 1200 nM. The IC50 at CYP 2C9 was > 10000 nM. Besides, in the series with novel object recognition, the “NOR Interpretation” value is “no effect”. Besides, the “NOR - 60 minutes post training” value in the series on novel object recognition is given as “retained”. The “NOR - 120 minutes post training” value in the series with novel object recognition is given as “not retained”. Besides, the EC50 is 12.6 nM at D2 receptor, 1260 nM at muscarinic M2 receptor and 100 nM at M1 receptor. In addition, the Emax on D2 receptor (read-out: D2 intrinsic activity %) amounted to 33%; on muscarinic M2 receptor it was 113%; on M1 receptor, 62%. Further, the “MK-801 model (ID50 mg/kg po)” value in [1] is listed as 1.6 mg/kg. In addition, the “MK-801 model (ID50 mg/kg sc)” value in [1] was 0.7 mg/kg. In the series “Ames mutagenesis assay” (setting [4]), the Ames result is “Neg”. For the same compound, the results for the microsomal CLint (in series [2]; in the series “Rat microsomal clearance”) were 21 µL/min/mg and 383 µL/min/mg, respectively. Also, in series [3], the “Amphetamine model (ID50 mg/kg po)” value is 2.8 mg/kg. Besides, in series [3], the “Amphetamine model (ID50 mg/kg sc)” value came out at 3.6 mg/kg.
For the compound `Cc1cccc2c1Oc1ccc(Cl)cc1N=C2N1CCNCC1` [8-Chloro-4-methyl-11-(piperazin-1-yl)-dibenzo[b,f][1,4]oxazepine], the IC50 on CYP 1A2 is 1800 nM; on CYP 2C19, > 10000 nM; on CYP 2D6, > 10000 nM; on 5-HT2A receptor, 31.6 nM; against CYP 3A4 it was 1800 nM; against hERG it was 2000 nM. Besides, at CYP 2C9, the IC50 is > 10000 nM. Further, the “NOR Interpretation” value with novel object recognition was “procognitive”. For the same compound, in the series on novel object recognition, the “NOR - 60 minutes post training” value is listed as “retained”. For the same compound, the “NOR - 120 minutes post training” value with novel object recognition is “retained”. Besides, on D2 receptor, the “D2 intrinsic activity, in words” value is on record as “antagonist”. For the same compound, the “MK-801 model (ID50 mg/kg po)” value in series [1] was determined as 1.9 mg/kg. Moreover, the “MK-801 model (ID50 mg/kg sc)” value in series [1] was determined as 0.5 mg/kg. In addition, the Emax on muscarinic M2 receptor and on M1 receptor was 71% throughout. Besides, the results for the EC50 on muscarinic M2 receptor and on M1 receptor were 631 nM and 200 nM, respectively. For the same compound, in “Ames mutagenesis assay” (to 5 μM (cytotoxicity precluded evaluation of all concentrations)), the Ames entry is recorded as “Neg”. Besides, the microsomal CLint (commonly a measure of how fast metabolising enzymes remove a compound, apart from limits set by blood flow) in [2] was determined as 16 µL/min/mg; in “Rat microsomal clearance”, 27 µL/min/mg. Besides, in series [3], the “Amphetamine model (ID50 mg/kg po)” value is given as >10 mg/kg. In addition, in series [3], the “Amphetamine model (ID50 mg/kg sc)” value worked out at 3.4 mg/kg.
For `Cc1cccc2c1Oc1ccc(F)cc1N=C2N1CCNCC1` [8-Fluoro-4-methyl-11-(piperazin-1-yl)-dibenzo[b,f][1,4]oxazepine], the IC50 on CYP 1A2 was 1000 nM; against CYP 2C19, > 25000 nM; on CYP 2D6 it was > 25000 nM; on 5-HT2A receptor it was 126 nM; at CYP 3A4, ~1500 nM; at hERG, 2300 nM. Also, on CYP 2C9, the IC50 is > 25000 nM. The “NOR Interpretation” value in the series on novel object recognition is listed as “procognitive”. For the same compound, the “NOR - 60 minutes post training” value in the series on novel object recognition was “retained”. Also, the “NOR - 120 minutes post training” value in the series on novel object recognition was “retained”. Moreover, the “D2 intrinsic activity, in words” value at D2 receptor is “antagonist”. Moreover, the “MK-801 model (ID50 mg/kg po)” value in series [1] is listed as 0.6 mg/kg. In addition, the “MK-801 model (ID50 mg/kg sc)” value in series [1] worked out at 1.4 mg/kg. Also, the Emax amounted to 50% on muscarinic M2 receptor and 56% at M1 receptor. The results for the EC50 on muscarinic M2 receptor and at M1 receptor were 1580 nM and 126 nM, respectively. Further, the Ames entry in “Ames mutagenesis assay” (setting [4]) is given as “Neg”. For the same compound, the microsomal CLint in series [2] was 13 µL/min/mg; in “Rat microsomal clearance”, 247 µL/min/mg. The “Amphetamine model (ID50 mg/kg po)” value in [3] was determined as 2.8 mg/kg. In series [3], the “Amphetamine model (ID50 mg/kg sc)” value is reported as 3.3 mg/kg.
